ChEMBL document CHEMBL1150645, “A new secosterol from the Indonesian octocoral Pachyclavularia violacea” (J Nat Prod, 2002)

How the values were obtained:
Format in all cases: functional, cell-based
SK-MEL-28 = assay: Cytotoxicity against human SK-MEL-28 cells
HT-29 = assay: Cytotoxicity against human HT-29 cells
P388 = assay: Cytotoxicity against mouse P388 cells
A549 = assay: Cytotoxicity against human A549 cells

Measured: IC50

CC(C)[C@@H](C)CC[C@@H](C)[C@H]1CC[C@@H]([C@@H]2C[C@H]3O[C@]34C[C@@H](O)CC[C@]4(C)C2=O)[C@]1(C)CCO [SECOSTEROL]
> 1 mg/L: all assays above

CC(=O)O[C@@H]1C/C=C(/C)C[C@H]2O[C@H]3[C@@H]4[C@H]2C(C)=CC(=O)[C@@H]4[C@@H](C)CO[C@@]13C [PACHYCLAVULARIAENONE B]
> 1 mg/L: all assays above
